Experimental data published in US11660293B2, “Substituted 2-azabicyclo[3.1.1]heptane and 2-azabicyclo[3.2.1]octane derivatives as orexin receptor antagonists” (Chronos Therapeutics Limited, priority 2017, dated 2023).

Tests used:
[1] = target: human Orexin type 2 receptors (Homo sapiens (Human), UniProt O43614); experiment: Scintillation Proximity Assay (SPA) binding assay, [3H]EMPA displacement, HEK-hOX2 membranes; conditions: Table 2, [3H]EMPA 2 nM
[2] = target: human Orexin type 1 receptors (Homo sapiens (Human), UniProt O43613); experiment: Scintillation Proximity Assay (SPA) binding assay, [3H]SB-674042 displacement, CHO-hOX1 membranes; conditions: Table 2, [3H]SB-674042 2 nM
Chain of human Orexin type 1 receptors (O43613 whole entry): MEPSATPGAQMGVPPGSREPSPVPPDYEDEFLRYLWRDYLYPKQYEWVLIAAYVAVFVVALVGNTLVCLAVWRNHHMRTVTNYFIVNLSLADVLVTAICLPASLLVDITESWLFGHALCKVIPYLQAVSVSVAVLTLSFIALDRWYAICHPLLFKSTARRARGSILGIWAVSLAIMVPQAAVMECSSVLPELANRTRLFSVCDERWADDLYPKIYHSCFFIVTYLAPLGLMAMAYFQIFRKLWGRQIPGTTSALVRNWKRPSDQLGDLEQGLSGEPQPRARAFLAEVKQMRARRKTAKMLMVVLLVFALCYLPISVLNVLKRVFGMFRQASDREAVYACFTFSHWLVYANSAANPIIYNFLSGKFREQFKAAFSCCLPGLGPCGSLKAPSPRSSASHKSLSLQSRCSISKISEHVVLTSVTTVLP

[3] = Measurement of brain fraction unbound (equilibrium dialysis); assay type: in vitro ADME; conditions: pH 7.4, rat brain homogenate, 37° C., read-out: FU brain (%, rat)
Procedure: Measurement of Brain Fraction Unbound (Equilibrium Dialysis)
Brain fractions unbound were determined using equilibrium dialysis in a 96-well format as described in Kalvass and Maurer, 2002. Brain homogenates were prepared using 2 ml/g CSF surrogate (7.30 g/l NaCl, 186.4 mg/l KCl, 239.9 mg/l MgCl2, 185.2 mg/l CaCl2), and 536.0 mg/l Na2HPO4.7H2O, pH 7.4). Dialysis membranes (12-14-kDA cutoff) obtained from Spectrum Laboratories Inc. (Rancho Dominguez, Calif.) were conditioned in water (HPLC grade) for 60 min, followed by 20 min in 20% ethanol, and 15 min in CSF surrogate.
Assay compound concentrations were 5 μM. Diluted brain homogenate was spiked with the compound of interest, and 150-μl aliquots were loaded into the 96-well equilibrium dialysis apparatus and dialyzed against an equal volume of CSF surrogate. Equilibrium was achieved by incubating the 96-well equilibrium dialysis apparatus in a temperature-controlled incubator at 37° C. for 5 h, using an orbital shaker at 125 rpm. At the end of the incubation period, 50-μl aliquots of brain homogenate and buffer were transferred to a 96-well plate, and the composition in each tube was balanced with control fluid to equalize the brain and buffer volumes. Sample extraction was performed by addition of 400 μl of acetonitrile containing internal standard (rolipram). The samples were then vortex-mixed and centrifuged, and 100 μl of supernatants was transferred into a 96-well plate, diluted with 200 μl of 16% acetonitrile/water, and analyzed by liquid chromatography-tandem mass spectrometry (LC-MS/MS).
The brain unbound fraction (FU brain) was calculated from the ratio of analyte/internal standard peak area ratios determined in buffer versus brain homogenate samples using equation (1), which accounts for the effect of tissue dilution on unbound fraction (Kalvass and Maurer, 2002):
[formula] where D is the dilution factor in brain homogenate and fu-diluted is the measured free fraction of diluted brain tissue. Results

Chain of human Orexin type 2 receptors (O43614 whole entry): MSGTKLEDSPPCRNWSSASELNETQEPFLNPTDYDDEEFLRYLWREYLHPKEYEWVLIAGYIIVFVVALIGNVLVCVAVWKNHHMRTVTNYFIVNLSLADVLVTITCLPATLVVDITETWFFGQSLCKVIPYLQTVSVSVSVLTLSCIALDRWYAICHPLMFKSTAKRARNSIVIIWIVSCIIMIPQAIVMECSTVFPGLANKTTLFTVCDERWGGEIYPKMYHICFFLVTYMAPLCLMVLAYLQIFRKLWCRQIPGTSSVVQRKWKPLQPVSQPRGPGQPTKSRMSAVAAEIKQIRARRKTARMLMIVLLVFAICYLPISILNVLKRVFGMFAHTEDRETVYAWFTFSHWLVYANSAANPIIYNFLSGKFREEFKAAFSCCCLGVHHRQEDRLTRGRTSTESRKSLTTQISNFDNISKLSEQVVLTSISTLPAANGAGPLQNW

SMILES	OX2 pKi (SPA binding) [1]	OX1 pKi (SPA binding) [2]	fraction unbound at 5 h, 5 μM [3]
Cc1ccc(-n2nccn2)c(C(=O)N2C3CC(C3)[C@@H](C)C2CNc2cnc(C(F)(F)F)cn2)n1 (single isomer, unassigned) [Example 167, N-{[(3R,4S) or (3S,4R)-4-methyl-2-[6-methyl-3-(2H-1,2,3-triazol-2-yl)pyridine-2-carbonyl]-2-azabicyclo[3.1.1]heptan-3-yl]methyl}-5-(trifluoromethyl)pyrazin-2-amine]	5.13	8.12	0.0593
Cc1ccc(-n2nccn2)c(C(=O)N2C3CC(C3)[C@@H](C)C2CNc2ccc(C(F)(F)F)cn2)n1 (single isomer, unassigned) [Example 183, N-{[(3R,4S) or (3S,4R)-4-methyl-2-[6-methyl-3-(2H-1,2,3-triazol-2-yl)pyridine-2-carbonyl]-2-azabicyclo[3.1.1]heptan-3-yl]methyl}-5-(trifluoromethyl)pyridin2-amine]	5.26	8.31	0.0256
Cc1ccc(-n2nccn2)c(C(=O)N2C3CC(C3)[C@@H](C)C2CNc2nc3cccnc3s2)n1 (single isomer, unassigned) [Example 186, N-({(3R,4S) or (3S,4R)-4-methyl-2-[6-methyl-3-(2H-1,2,3-triazol-2-yl)pyridine-2-carbonyl]-2-azabicyclo[3.1.1]heptan-3-yl}methyl)-[1,3]thiazolo[5,4-b]pyridin-2-amine]	5.36	8.42	0.147
C[C@@H]1C2CC(C2)N(C(=O)c2cc(Cl)ccc2-n2nccn2)C1CNc1cnc(C(F)(F)F)cn1 (single isomer, unassigned) [Example 205, N-({(3R,4S) or (3S,4R)2-[5-chloro-2-(2H-1,2,3-triazol-2-yl)benozyl]-4-methyl-2-azabicyclo[3.1.1]heptan-3-yl}methyl)-5-(trifluoromethyl)pyrazin-2-amine]	5.34	8.59	0.0089
C[C@@H]1C2CC(C2)N(C(=O)c2nn(C)cc2-c2ncccn2)C1CNc1ccc(C(F)(F)F)cn1 (single isomer, unassigned) [Example 215, N-{[(3R,4S) or (3S,4R)-4-methyl-2-{1-methyl-4-(pyrimidin-2-yl)-1H-pyrazole-3-carbonyl]-2-azabicyclo[3.1.1]heptan-3-yl]methyl}-5-(trifluoromethyl)pyridin-2-amine]	4.79	8.15	0.0761
C[C@@H]1C2CC(C2)N(C(=O)c2cc(F)ccc2-n2nccn2)C1CNc1cnc(C(F)(F)F)cn1 (single isomer, unassigned) [Example 223, N-{[(3R,4S) or (3S,4R)-2-[5-fluoro-2-(2H-1,2,3-triazol-2-yl)benzoyl]-4-methyl-2-azabicyclo[3.1.1]heptan-3-yl]methyl}-5-(trifluoromethyl)pyrazin-2-amine]	4.98	8.13	0.022
C[C@@H]1C2CC(C2)N(C(=O)c2cc(F)ccc2-n2nccn2)C1CNc1nc2cccnc2s1 (single isomer, unassigned) [Example 230, N-{[(3R,4S) or (3S,4R)-2-[5-fluoro-2-(2H-1,2,3-triazol-2-yl)benzoyl]-4-methyl-2-azabicyclo[3.1.1]heptan-3-yl]methyl}-[1,3]thiazolo[5,4-b]pyridin-2-amine]	5.32	8.46	0.0438
C[C@@H]1C2CC(C2)N(C(=O)c2cc(C#N)ccc2-n2nccn2)C1CNc1nc2cccnc2s1 (single isomer, unassigned) [Example 233, 3-[(3R,4S) or (3S,4R)-4-methyl-3-[({[1,3]thiazolo[5,4-b]pyridin-2-yl}amino)methyl]-2-azabicyclo[3.1.1]heptane-2-carbonyl]-4-(2H-1,2,3-triazol-2-yl)benzonitrile]	5.11	8.41	0.066
